One assay deals with Caspase 3. Briefly: Caspase 3 detection assay in SJSA1 cells. The class given is cell-based. The following applies: SJSA1, 48 h, Caspase 3 activation over DMSO-treated cells.
A further assay relates to SJSA-1 cells. Briefly: Cell lysis by peptidomimetic macrocycles (LDH release). The class given is cell-based. The following applies: SJSA-1, 1 h. Put shortly: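 Membrane lysis measured as supernatant LDH after a 1 h, 37 °C exposure of SJSA-1 cells, held in RPMI with 1% FBS, to macrocycles at final 6.25-50 μM with 0.5% DMSO. Lytic references were 10 μM melittin and 1% Triton X-100; DMSO alone served as non-lytic control.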
On the technique in general: Release of lactate dehydrogenase indicates damage to the cell membrane.

Structures are written as SMILES. Bridge positions count the residues as written; N and C are the ends. Square brackets hold non-standard residues; d marks the D form. Peptide text beside a SMILES is read from it. R8 = C=CCCCCCC[C@@](C)(N)C(=O)O; S5 = C=CCCC[C@](C)(N)C(=O)O

Turning to `CC(=O)N[C@@H](CC(C)C)C(=O)N[C@H](C(=O)N[C@@H](Cc1ccccc1)C(=O)N[C@]1(C)CCCCCCC=CCCC[C@@](C)(C(=O)N[C@@H](C)C(=O)N[C@@H](C)C(=O)N[C@@H](C)C(=O)N[C@@H](C)C(=O)N[C@@H](C)C(=O)N[C@@H](C)C(=O)N[C@H](C)C(N)=O)NC(=O)[C@H](CC(C)C)NC(=O)[C@H](CCC(N)=O)NC(=O)[C@H](C)NC(=O)[C@H](Cc2c[nH]c3ccccc23)NC(=O)[C@H](Cc2ccc(O)cc2)NC(=O)[C@H](CCC(=O)O)NC1=O)[C@@H](C)O` (single isomer, unassigned) [compound 343], in the assay with Caspase 3, the “caspase 0.3 μM” value is 1, the “caspase 1 μM” value was 1, the “caspase 3 μM” value was 2 and the “caspase 10 μM” value came to 5. Moreover, the “caspase 30 μM” value with Caspase 3 was 29. Moreover, in the assay with SJSA-1 cells, the “6.25 μM % Lysed cells (1 h LDH)” value was determined as 0%, the “25 μM % Lysed cells (1 h LDH)” value came out at 0% and the “50 μM % Lysed cells (1 h LDH)” value came to 0%.
Turning to `CC(=O)N[C@@H](CC(C)C)C(=O)N[C@H](C(=O)N[C@@H](Cc1ccccc1)C(=O)N[C@]1(C)CCCCCCC=CCCC[C@@](C)(C(=O)N[C@@H](C)C(=O)N[C@@H](C)C(=O)N[C@@H](C)C(=O)N[C@@H](C)C(=O)N[C@@H](C)C(=O)N[C@H](C)C(N)=O)NC(=O)[C@H](CC2CCC2)NC(=O)[C@H](CCC(N)=O)NC(=O)[C@H](C)NC(=O)[C@H](Cc2c[nH]c3ccccc23)NC(=O)[C@H](Cc2ccc(O)cc2)NC(=O)[C@H](CCC(=O)O)NC1=O)[C@@H](C)O` (single isomer, unassigned) [compound 347], in the assay with Caspase 3, the “caspase 0.3 μM” value amounted to 2, the “caspase 1 μM” value was found to be 3, the “caspase 3 μM” value was 5 and the “caspase 10 μM” value is listed as 8. For the same compound, in the assay with Caspase 3, the “caspase 30 μM” value was determined as 29. Also, in the assay with SJSA-1 cells, the “6.25 μM % Lysed cells (1 h LDH)” value was found to be 0%, the “25 μM % Lysed cells (1 h LDH)” value was 0% and the “50 μM % Lysed cells (1 h LDH)” value is given as 0%.
`CC[C@H](C)[C@H](NC(=O)[C@H](C)NC(=O)[C@H](CO)NC(=O)[C@]1(C)CCCC=CCCCCCC[C@@](C)(NC(=O)[C@H](Cc2ccccc2)NC(=O)[C@@H](NC(=O)[C@H](CC(C)C)NC(C)=O)[C@@H](C)O)C(=O)N[C@@H](C)C(=O)N[C@@H](Cc2ccc(O)cc2)C(=O)N[C@@H](Cc2c[nH]c3ccccc23)C(=O)N[C@@H](C)C(=O)N[C@@H](CCC(N)=O)C(=O)N[C@@H](CC(C)C)C(=O)N1)C(N)=O` [compound 8] (Ac-LTF[R8]AYWAQL[S5]SAI-NH2; staple 4-11): in the assay with Caspase 3, the “caspase 3 μM” value is reported as 1, the “caspase 10 μM” value was 19 and the “caspase 30 μM” value was 25. Moreover, in the assay with SJSA-1 cells, the “6.25 μM % Lysed cells (1 h LDH)” value is −1%, the “25 μM % Lysed cells (1 h LDH)” value is recorded as 1% and the “50 μM % Lysed cells (1 h LDH)” value is given as 1%.
Regarding `CSCC[C@H](NC(=O)[C@H](C)NC(=O)[C@H](C)NC(=O)[C@]1(C)CCCC=CCCCCCC[C@@](C)(NC(=O)[C@H](Cc2ccccc2)NC(=O)[C@@H](NC(=O)[C@H](CC(C)C)NC(C)=O)[C@@H](C)O)C(=O)N[C@@H](C)C(=O)N[C@@H](Cc2ccc(O)cc2)C(=O)N[C@@H](Cc2c[nH]c3ccccc23)C(=O)N[C@@H](C)C(=O)N[C@@H](C)C(=O)N[C@@H](CC(C)C)C(=O)N1)C(=O)N[C@H](C)C(N)=O` [compound 72] (Ac-LTF[R8]AYWAAL[S5]AAM[dA]-NH2; staple 4-11), in the assay with Caspase 3, the “caspase 0.3 μM” value came to 1, the “caspase 3 μM” value came to 1, the “caspase 10 μM” value was 4 and the “caspase 30 μM” value was 10. For the same compound, in the assay with SJSA-1 cells, the “6.25 μM % Lysed cells (1 h LDH)” value was determined as 2%, the “25 μM % Lysed cells (1 h LDH)” value is 0% and the “50 μM % Lysed cells (1 h LDH)” value was 3%.
Regarding `CC(=O)N[C@@H](CC(C)C)C(=O)N[C@H](C(=O)N[C@@H](Cc1ccccc1)C(=O)N[C@]1(C)CCCCCCC=CCCC[C@@](C)(C(=O)N[C@@H](CO)C(=O)N[C@H](C(=O)NCC(N)=O)C(C)C)NC(=O)[C@H](CC(C)C)NC(=O)[C@H](CCC(N)=O)NC(=O)[C@H](C)NC(=O)[C@H](Cc2c[nH]c3ccccc23)NC(=O)[C@H](Cc2ccc(O)cc2)NC(=O)[C@H](C)NC1=O)[C@@H](C)O` [compound 123] (Ac-LTF[R8]AYWAQL[S5]SVG-NH2; staple 4-11), in the assay with Caspase 3, the “caspase 0.3 μM” value came out at 1, the “caspase 3 μM” value worked out at 1, the “caspase 10 μM” value is given as 6 and the “caspase 30 μM” value stood at 14. Moreover, in the assay on SJSA-1 cells, the “6.25 μM % Lysed cells (1 h LDH)” value is recorded as −2%, the “25 μM % Lysed cells (1 h LDH)” value stood at 5% and the “50 μM % Lysed cells (1 h LDH)” value turned out to be 3%.
For `CC(=O)N[C@@H](CCC(=O)O)C(=O)N[C@H](C(=O)N[C@@H](Cc1ccccc1)C(=O)N[C@]1(C)CCCCCCC=CCCC[C@@](C)(C(=O)N[C@@H](CO)C(=O)N[C@H](C(=O)N[C@@H](CO)C(N)=O)C(C)C)NC(=O)[C@H](CC(C)C)NC(=O)[C@H](CCC(N)=O)NC(=O)[C@H](C)NC(=O)[C@H](Cc2c[nH]c3ccccc23)NC(=O)[C@H](Cc2ccc(O)cc2)NC(=O)[C@H](C(C)C)NC1=O)[C@@H](C)O` [compound 130] (Ac-ETF[R8]VYWAQL[S5]SVS-NH2; staple 4-11), in the assay with Caspase 3, the “caspase 0.3 μM” value amounted to 1, the “caspase 3 μM” value is on record as 2, the “caspase 10 μM” value amounted to 6 and the “caspase 30 μM” value is on record as 17. Further, in the assay on SJSA-1 cells, the “6.25 μM % Lysed cells (1 h LDH)” value came out at 1%, the “25 μM % Lysed cells (1 h LDH)” value is 0% and the “50 μM % Lysed cells (1 h LDH)” value is reported as −1%.
Regarding `CC[C@H](C)[C@H](NC(=O)[C@H](C)NC(=O)[C@H](C)NC(=O)[C@]1(C)CCCC=CCCCCCC[C@@](C)(NC(=O)[C@H](Cc2ccccc2)NC(=O)[C@@H](NC(=O)[C@H](CC(C)C)NC(C)=O)[C@@H](C)O)C(=O)N[C@@H](C)C(=O)N[C@@H](Cc2c[nH]cn2)C(=O)N[C@@H](Cc2c[nH]c3ccccc23)C(=O)N[C@@H](C)C(=O)N[C@@H](CCC(N)=O)C(=O)N[C@@H](CC(C)C)C(=O)N1)C(=O)N[C@H](C)C(N)=O` [compound 170] (Ac-LTF[R8]AHWAQL[S5]AAI[dA]-NH2; staple 4-11), in the assay on Caspase 3, the “caspase 0.3 μM” value is listed as 1, the “caspase 3 μM” value came to 1, the “caspase 10 μM” value came out at 16 and the “caspase 30 μM” value worked out at 20. In addition, in the assay with SJSA-1 cells, the “6.25 μM % Lysed cells (1 h LDH)” value is 2%, the “25 μM % Lysed cells (1 h LDH)” value is 1% and the “50 μM % Lysed cells (1 h LDH)” value is recorded as −1%.
With `CC[C@H](C)[C@H](NC(C)=O)C(=O)N[C@H](C(=O)N[C@@H](Cc1ccccc1)C(=O)N[C@]1(C)CCCCCCC=CCCC[C@@](C)(C(=O)N[C@@H](C)C(=O)N[C@@H](C)C(=O)N[C@H](C(=O)N[C@H](C)C(N)=O)[C@@H](C)CC)NC(=O)[C@H](CC(C)C)NC(=O)[C@H](CCC(N)=O)NC(=O)[C@H](C(C)C)NC(=O)[C@H](Cc2c[nH]c3ccccc23)NC(=O)[C@H](Cc2ccc(O)cc2)NC(=O)[C@H](Cc2ccccc2)NC1=O)[C@@H](C)O` [compound 177] (Ac-ITF[R8]FYWVQL[S5]AAI[dA]-NH2; staple 4-11), in the assay with Caspase 3, the “caspase 0.3 μM” value stood at 1, the “caspase 3 μM” value worked out at 1, the “caspase 10 μM” value was 8 and the “caspase 30 μM” value is on record as 20. Besides, in the assay on SJSA-1 cells, the “6.25 μM % Lysed cells (1 h LDH)” value is given as −1%, the “25 μM % Lysed cells (1 h LDH)” value is listed as 0% and the “50 μM % Lysed cells (1 h LDH)” value is reported as 1%.
Take `CC(=O)N[C@@H](CC(C)C)C(=O)N[C@H](C(=O)N[C@@H](Cc1ccccc1)C(=O)N[C@]1(C)CCCCCCC=CCCC[C@@](C)(C(=O)N[C@@H](C)C(=O)N[C@@H](Cc2c[nH]cn2)C(=O)N[C@@H](Cc2ccccc2)C(=O)N[C@@H](C)C(N)=O)NC(=O)[C@H](CC(C)C)NC(=O)[C@H](CCC(N)=O)NC(=O)[C@H](C)NC(=O)[C@H](Cc2c[nH]c3ccccc23)NC(=O)[C@H](Cc2c[nH]cn2)NC(=O)[C@H](C)NC1=O)[C@@H](C)O` [compound 183] (Ac-LTF[R8]AHWAQL[S5]AHFA-NH2; staple 4-11): in the assay with Caspase 3, the “caspase 0.3 μM” value was 1, the “caspase 3 μM” value amounted to 1, the “caspase 10 μM” value turned out to be 4 and the “caspase 30 μM” value stood at 8. In addition, in the assay on SJSA-1 cells, the “6.25 μM % Lysed cells (1 h LDH)” value worked out at 2%, the “25 μM % Lysed cells (1 h LDH)” value is 0% and the “50 μM % Lysed cells (1 h LDH)” value turned out to be 3%.
For `CC(=O)N[C@@H](CC(C)C)C(=O)N[C@H](C(=O)N[C@@H](Cc1ccccc1)C(=O)N[C@]1(C)CCCCCCC=CCCC[C@@](C)(C(=O)N[C@@H](CO)C(=O)N[C@@H](C)C(=O)N[C@@H](C)C(N)=O)NC(=O)[C@H](CC(C)C)NC(=O)[C@H](C)NC(=O)[C@H](C)NC(=O)[C@H](Cc2c[nH]c3ccccc23)NC(=O)[C@H](Cc2c[nH]cn2)NC(=O)[C@H](C)NC1=O)[C@@H](C)O` [compound 197] (Ac-LTF[R8]AHWAAL[S5]SAA-NH2; staple 4-11), in the assay with Caspase 3, the “caspase 0.3 μM” value was determined as 1, the “caspase 3 μM” value is listed as 1, the “caspase 10 μM” value was 10 and the “caspase 30 μM” value is given as 20. Besides, in the assay with SJSA-1 cells, the “6.25 μM % Lysed cells (1 h LDH)” value stood at 1%, the “25 μM % Lysed cells (1 h LDH)” value was −1% and the “50 μM % Lysed cells (1 h LDH)” value is −2%.
In the case of `CC(=O)N[C@@H](CC(C)C)C(=O)N[C@H](C(=O)N[C@@H](Cc1ccccc1)C(=O)N[C@]1(C)CCCCCCC=CCCC[C@@](C)(C(=O)N[C@@H](C)C(=O)N[C@@H](Cc2c[nH]cn2)C(=O)N[C@@H](Cc2ccccc2)C(=O)N[C@@H](C)C(N)=O)NC(=O)[C@H](CC(C)C)NC(=O)[C@H](C)NC(=O)[C@H](C)NC(=O)[C@H](Cc2c[nH]c3ccccc23)NC(=O)[C@H](Cc2ccc(O)cc2)NC(=O)[C@H](C)NC1=O)[C@@H](C)O` [compound 204] (Ac-LTF[R8]AYWAAL[S5]AHFA-NH2; staple 4-11), in the assay on Caspase 3, the “caspase 0.3 μM” value is on record as 1, the “caspase 3 μM” value is listed as 4, the “caspase 10 μM” value is on record as 10 and the “caspase 30 μM” value is listed as 10. Also, in the assay with SJSA-1 cells, the “6.25 μM % Lysed cells (1 h LDH)” value worked out at 4%, the “25 μM % Lysed cells (1 h LDH)” value amounted to 2% and the “50 μM % Lysed cells (1 h LDH)” value was found to be 0%.

The values above are taken from patent US20200369728A1, “PEPTIDOMIMETIC MACROCYCLES AND USES THEREOF” (Aileron Therapeutics, Inc., priority 2015, published 2020).
